In brackets after ≈: the same amount, converted by molar mass. Like-named read-outs stand apart in the source and are kept apart here. Square brackets hold non-standard residues; d marks the D form. Peptide text beside a SMILES is read from it. Bip = N[C@@H](Cc1ccc(-c2ccccc2)cc1)C(=O)O; NMeM = CN[C@@H](CCSC)C(=O)O; NMeA = CN[C@@H](C)C(=O)O
Columns and labels:
[1] = system: E. coli BW25113; assay type: cell-based, Escherichia coli
How it was run: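 For MIC, bacteria (final OD600 ~0.0002) were incubated with 2-fold peptide dilutions (top 400–800 μM) in cation-adjusted MHB II with or without EDTA, 20 h at 37 °C, read by OD600. EDTA was 0.5 mM for E. coli and 0.125 mM for USA300. The growth-inhibition assay used log-phase cells at OD600 ~0.001, 4 h at 37 °C, BacTiter-Glo luminescence.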

[2] = system: S. aureus USA300; assay: MIC assay, S. aureus USA300; assay type: cell-based, Staphylococcus aureus; conditions: Table 7
How it was run: (§1)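 Peptides were serially diluted 2-fold in cation-adjusted Mueller Hinton II broth (top final 400-800 μM) with log-phase or overnight-plate bacteria at final OD600 ~0.0002. EDTA was added at 0.5 mM final for E. coli and 0.125 mM for USA300. MIC was read as OD600 after 20 h at 37° C.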

[3] = system: E. coli imp4213; assay: MIC assay, E. coli imp4213; assay type: cell-based, Escherichia coli; conditions: Table 7
How it was run: as §1

[4] = system: K. pneumoniae; assay type: cell-based, Klebsiella pneumoniae; conditions: Table 8
How it was run: as §1

[5] = system: A. baumannii; assay type: cell-based, Acinetobacter baumannii; conditions: Table 8
How it was run: as §1

[6] = system: P. aeruginosa; assay type: cell-based, Pseudomonas aeruginosa; conditions: Table 8
How it was run: as §1

[7] = system: E. coli ΔwaaD MCR-1; assay: MIC assay, E. coli ΔwaaD MCR-1; assay type: cell-based, Escherichia coli; conditions: Table 7
Protocol: (§2) Bacterial growth conditions. LB or Mueller Hinton II cation-adjusted broth (MHB II, BBL 212322) was prepared according to manufacturer's instructions and supplemented with arabinose at 0.02% for overnight growth or at indicated concentrations in the description of the figures. Bacterial cultures were grown at 37° C. When appropriate, media was supplemented with kanamycin (50 μg/mL), carbenicillin (50 μg/mL), chloramphenicol (12.5 or 25 μg/mL), hygromycin (200 μg/mL), and/or gentamicin (10 μg/mL).
(§3) Peptide sensitivity and MIC assays. Lyophilized peptides (Smartox Biotechnology, CPC Scientific. ABclonal) were solubilized to 10 mM in Tris buffer, pH 8, prior to making a 2-fold dilution series in MHBII cation adjusted broth with highest final assay concentration of 400-800 μM. Bacteria were grown to log phase and added to final OD600˜0.001. The final EDTA concentration was 0.5 mM for E. coli strains and 0.125 mM for USA300. The final volume of 10 μL/well in a 384 well black, clear bottom plate (Corning) was spun <1 min at <250×g and then incubated at 37° C. After 4 h, an equal volume (10 μL) of BacTiter-Glo™ (Promega) was added to each well and luminescence was read after 5 min on an EnVision plate reader (PerkinElmer). To measure the minimal inhibitory concentrations (MICs), bacteria from fresh overnight plates or log phase cultures were diluted with or without EDTA and peptides as described above to final OD600˜0.0002. Plates were incubated at 37° C. for 20 h before measuring OD600 with an EnVision plate reader.

[8] = system: E. coli ΔwaaD + vect.; assay: MIC assay, E. coli ΔwaaD + vect.; assay type: cell-based, Escherichia coli; conditions: Table 7
Protocol: as §2, §3

[9] = system: E. coli ΔwaaD; assay: MIC assay, E. coli ΔwaaD; assay type: cell-based, Escherichia coli; conditions: Table 7; + EDTA
Protocol: as §2, §3

Compound | MIC E. coli BW25113 ([1]; Table 8) | MIC S. aureus USA300 [2] | MIC E. coli imp4213 [3] | MIC K. pneumoniae [4] | MIC A. baumannii [5] | MIC R. aeruginosa [6] | MIC E coli ΔwaaD − MCR1 [7] | MIC E. coli ΔwaaD + vect. [8] | MIC E coli BW25113 + EDTA ([1]; Table 7) | MIC E. coli BW25113 ([1]; Table 7, no EDTA) | MIC E. coli ΔwaaD + EDTA [9]
CSCC[C@H](NC(=O)[C@@H]1CCCN1C(=O)[C@H](Cc1ccc(O)cc1)NC(C)=O)C(=O)N[C@H](C(=O)N[C@@H](C)C(=O)N[C@@H](CCCNC(=N)N)C(=O)N[C@@H](CCCNC(=N)N)C(=O)N[C@@H](Cc1ccc(-c2ccccc2)cc1)C(=O)N[C@@H](CC(C)C)C(=O)N[C@@H](CCC(=O)O)C(=O)N[C@@H](CCCCN)C(=O)N[C@@H](Cc1c[nH]c2ccccc12)C(=O)NCC(=O)N[C@@H](CC(C)C)C(=O)N[C@@H](CC(C)C)C(=O)N[C@@H](CCCNC(=N)N)C(N)=O)[C@@H](C)O [compound 55] (Ac-YPMTARR[Bip]LEKWGLLR-NH2) | 100 µM (≈ 215 µg/mL) | >400 µM | 6.25 µM (≈ 13.5 µg/mL) | 400 µM (≈ 862 µg/mL) | 25 µM (≈ 53.9 µg/mL) | >800 µM | 50 µM (≈ 108 µg/mL) | 25 µM |  |  | 
CSCC[C@@H](C(=O)N[C@H](C(=O)N(C)[C@@H](C)C(=O)N[C@@H](CCCNC(=N)N)C(=O)N[C@@H](CCCNC(=N)N)C(=O)N[C@@H](Cc1ccccc1)C(=O)N[C@@H](CC(C)C)C(=O)N[C@@H](CCC(=O)O)C(=O)N[C@@H](CCCCN)C(=O)N[C@@H](Cc1c[nH]c2ccccc12)C(=O)NCC(=O)N[C@@H](CC(C)C)C(=O)N[C@@H](CC(C)C)C(=O)N[C@@H](CCCNC(=N)N)C(N)=O)[C@@H](C)O)N(C)C(=O)[C@@H]1CCCN1C(=O)[C@H](Cc1ccc(O)cc1)NC(C)=O [compound 65] (Ac-YP[NMeM]T[NMeA]RRFLEKWGLLR-NH2) | 200 µM (≈ 421 µg/mL) | 800 µM (≈ 1690 µg/mL) | 12.5 µM (≈ 26.3 µg/mL) | 200 µM (≈ 421 µg/mL) | 50 µM (≈ 105 µg/mL) | 800 µM (≈ 1690 µg/mL) | 100 µM (≈ 211 µg/mL) | <6.25 µM |  |  | 
Ac-GSSYPMTARRFLEKHGL-NH2 [compound 8] |  | >800 µM | 200 µM |  |  |  |  |  | 800 µM | >800 µM | 800 µM
Ac-GSSYPMTARRFLEKHGLL-NH2 [compound 7] |  | >800 µM | 200/400 |  |  |  |  |  | 400 µM | >800 µM | 400 µM
Ac-GSSYPMTARRFLEKHGLLR-NH2 [compound 13] |  | >800 µM | 200 µM |  |  |  | 200 µM | 800 µM | 800 µM | >800 µM | 200 µM
Ac-GSSYPMTARRFLEKWGLLD-NH2 [compound 6] |  | >800 µM | 400 µM |  |  |  |  |  | 800 µM | >800 µM | >800 µM
Ac-GSSYPMTARRFLEKWGLLR-NH2 (N-terminus and C-terminus assumed) [compound 5] |  |  |  |  |  |  |  |  | 400 µM |  | 100 µM
Ac-SSYPMTARRFLEKHGLLD-NH2 [compound 9] |  | >800 µM | 800 µM |  |  |  |  |  | >800 µM | >800 µM | >800 µM
Ac-YPMNARRFLEKWGLLR-NH2 [compound 50] | 400 µM | >400 µM | 25 µM | 800 µM | 400 µM | 800 µM | 800/400 | 200 µM |  |  | 
Ac-YPMSARRFLEKWGLLR-NH2 [compound 49] | 400 µM | >400 µM | 25 µM | 800 µM | 200 µM | 400 µM | 400 µM | 100 µM |  |  | 
Ac-YPMTAQRFLEKWGLLR-NH2 [compound 54] |  | >400 µM | 100 µM | >800 µM | >800 µM | >800 µM | >800 µM | 100 µM |  | >400 µM | 
Ac-YPMTARRFLAKWGLLR-NH2 [compound 57] | 200 µM | >400 µM | 12.5 µM | 400 µM | 100 µM | 200 µM | 100/700 | 100 µM |  |  | 
Ac-YPMTARRFLEKHGL-NH2 [compound 12] |  |  |  |  |  |  |  |  | 800 µM |  | 400 µM
Ac-YPMTARRFLEKHGLL-NH2 [compound 11] |  | >800 µM | 200 µM |  |  |  |  |  | 400 µM | >800 µM | 400 µM
Ac-YPMTARRFLEKHGLLD-NH2 [compound 10] |  | >800 µM | 800 µM |  |  |  |  |  | 800 µM | >800 µM | >800 µM
Ac-YPMTARRFLEKWGL-NH2 [compound 44] |  | >800 µM | 100 µM | >800 µM | >800 µM | 800 µM | >800 µM | 200 µM |  | >400 µM | 
Ac-YPMTARRYLEKWGLLR-NH2 [compound 56] |  | >400 µM | 25 µM | 800 µM | 400 µM | 800 µM | 800 µM | 400 µM |  | >400 µM | 
Ac-YPMTFRRFLEKWGLLR-NH2 [compound 59] | 400 µM | >400 µM | 12.5 µM | 800 µM | 50 µM | >800 µM | 50 µM | 25 µM |  |  | 
Ac-YPMTMRRFLEKWGLLR-NH2 [compound 58] | 400 µM | >400 µM | 12.5 µM | 400 µM | 25 µM | >800 µM | 50 µM | 50/25 |  |  | 
